Results: patent US11649207B2, “Formulations of T-type calcium channel modulators and methods of use thereof” (PRAXIS PRECISION MEDICINES, INC., priority 2019, dated 2023)

Tested on: essential tremor
Assay: Clinical study in essential tremor (TETRAS, accelerometer)
Assay type: in vivo, human
Details: essential tremor patient, emerging data
Procedure: A clinical study was conducted to investigate the efficacy, safety, and tolerability of the compound of formula (I) in essential tremor. A patient who has been diagnosed with essential tremor completed 3 study periods: Screening, Treatment period (14 days), and Safety follow-up. The patient received a stable dose of 1 tremor medication throughout the clinical trial. The patient received 20 mg of the compound of formula (I) (one tablet of formulation 5) orally once a day for 7 days and 40 mg of the compound of formula (I) (two tablets of 20 mg formulation 5) orally once a day for 7 days (total of 14 days consecutively). Efficacy of the compound of formula (I) on upper limb tremor was assessed by The Essential Tremor Rating Assessment Scale (TETRAS) upper limb score at Baseline, on Day 7, and on Day 14. Efficacy of the compound of formula (I) on other measures of tremor severity was assessed by TETRAS performance subscale score, TETRAS performance individual items, and accelerometer at Baseline, on Day 7, and on Day 14.

SMILES: CC(C)(C)NC(=O)CN1CCC(CNC(=O)c2cc(F)cc(Cl)c2)CC1 [compound of formula (I)]
- tolerability: well tolerated
